# Activity calls are given as the source filed them. The calls are words filed in the database; no cut-off is given here.
# Tests used:
# [1] = target: Tyrosine-protein kinase FRK (Homo sapiens) (UniProt P42685); test: Inhibition of recombinant human full-length GST-tagged FRK expressed in baculovirus expression system at 2 uM using Tyr 01 as substrate measured after 1 hr by Z'-LYTE assay relative to control
# [2] = target: Phosphorylase b kinase gamma catalytic chain, skeletal muscle/heart isoform (Homo sapiens) (UniProt Q16816); test: Inhibition of recombinant human full length GST-tagged PHKG1 expressed in insect cells at 2 uM using Ser/Thr 07 as substrate measured after 1 hr by Z'-LYTE assay relative to control; conditions: Insect cell
# [3] = system: A549; test: Antiproliferative activity against human A549 cells assessed as cell growth inhibition incubated for 24 hrs by MTS assay; assay type: functional, cell-based; conditions: A549, 24 h
# [4] = target: Serine/threonine-protein kinase Sgk3 (Homo sapiens) (UniProt Q96BR1); test: Inhibition of recombinant human GST-tagged SGK3 (87-496 residues) expressed in insect cells at 2 uM using Ser/Thr 06 as substrate measured after 1 hr by Z'-LYTE assay relative to control; conditions: Insect cell
# [5] = target: Mitogen-activated protein kinase 8 (Homo sapiens) (UniProt P45983); test: Inhibition of recombinant human full length His-tagged MAPK8 expressed in insect cells at 2 uM using Ser/Thr 04 as substrate measured after 1 hr by Z'-LYTE assay relative to control; conditions: Insect cell
# [6] = target: Serine/threonine-protein kinase mTOR (Homo sapiens, UniProt P42345); conditions: HEK293, dose 0.1-1 nM, time 20.0 min
# [7] = target: Dual specificity mitogen-activated protein kinase kinase 6 (Homo sapiens) (UniProt P52564); test: Inhibition of recombinant human full length His-tagged MAP2K6 expressed in baculovirus expression system at 2 uM using Ser/Thr 03 as substrate measured after 1 hr by Z'-LYTE assay relative to control
# [8] = system: MDA-MB-361; test: Induction of apoptosis in human MDA-MB-361 cells assessed as little increase in G1 phase at 5 micromol/L incubated for 12 hrs by FACS analysis relative to control; assay type: functional, cell-based; conditions: dose 5.0 µmol/L
# [9] = target: RAC-beta serine/threonine-protein kinase (Homo sapiens) (UniProt P31751); test: Inhibition of recombinant human full-length His-tagged AKT2 expressed in insect cells at 2 uM using Ser/Thr 06 as substrate measured after 1 hr by Z'-LYTE assay relative to control; conditions: Insect cell
# RAC-beta serine/threonine-protein kinase (Homo sapiens), sequence (P31751 whole entry): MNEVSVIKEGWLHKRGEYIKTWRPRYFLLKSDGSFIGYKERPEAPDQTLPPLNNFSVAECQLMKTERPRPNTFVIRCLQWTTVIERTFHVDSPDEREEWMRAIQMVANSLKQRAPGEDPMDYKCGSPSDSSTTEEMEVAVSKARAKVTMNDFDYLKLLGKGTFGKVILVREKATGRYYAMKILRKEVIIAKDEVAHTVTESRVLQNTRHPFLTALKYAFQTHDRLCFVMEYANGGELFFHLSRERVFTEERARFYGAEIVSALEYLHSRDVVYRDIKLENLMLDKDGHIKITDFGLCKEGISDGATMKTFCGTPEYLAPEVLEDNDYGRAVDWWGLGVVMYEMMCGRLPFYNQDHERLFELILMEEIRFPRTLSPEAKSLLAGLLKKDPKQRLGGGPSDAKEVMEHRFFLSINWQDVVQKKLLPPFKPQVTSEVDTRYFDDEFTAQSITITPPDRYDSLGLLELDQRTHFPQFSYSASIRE
# [10] = target: Tyrosine-protein kinase CSK (Homo sapiens) (UniProt P41240); test: Inhibition of recombinant human full-length His-tagged CSK expressed in E. coli at 2 uM using Tyr 02 as substrate measured after 1 hr by Z'-LYTE assay relative to control
# Tyrosine-protein kinase CSK (Homo sapiens), sequence (P41240 2-450 limits assumed): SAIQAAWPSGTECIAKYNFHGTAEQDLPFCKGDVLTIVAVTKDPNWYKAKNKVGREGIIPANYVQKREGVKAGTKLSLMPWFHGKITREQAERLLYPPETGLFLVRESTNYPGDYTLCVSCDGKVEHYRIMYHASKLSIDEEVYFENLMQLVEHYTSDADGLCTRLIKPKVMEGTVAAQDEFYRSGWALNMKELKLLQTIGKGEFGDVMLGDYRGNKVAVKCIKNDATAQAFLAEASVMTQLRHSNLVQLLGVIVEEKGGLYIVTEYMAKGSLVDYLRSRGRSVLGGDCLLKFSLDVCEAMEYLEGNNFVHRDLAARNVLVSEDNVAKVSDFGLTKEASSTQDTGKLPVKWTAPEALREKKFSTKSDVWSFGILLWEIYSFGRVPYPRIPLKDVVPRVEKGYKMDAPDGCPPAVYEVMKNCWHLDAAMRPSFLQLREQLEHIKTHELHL
# [11] = target: T1, mTORC2 (Homo sapiens) (UniProt P42345+Q6R327+Q9BVC4+Q9BPZ7); conditions: PC3MM2, dose 0.1-1 µM, time 6.0 hrs
# [12] = target: Serine/threonine-protein kinase MARK1 (Homo sapiens) (UniProt Q9P0L2); test: Inhibition of recombinant human full length GST-tagged MARK1 expressed in baculovirus expression system at 2 uM using Ser/Thr 21 as substrate measured after 1 hr by Z'-LYTE assay relative to control
# Serine/threonine-protein kinase MARK1 (Homo sapiens), sequence (Q9P0L2 whole entry, looked up): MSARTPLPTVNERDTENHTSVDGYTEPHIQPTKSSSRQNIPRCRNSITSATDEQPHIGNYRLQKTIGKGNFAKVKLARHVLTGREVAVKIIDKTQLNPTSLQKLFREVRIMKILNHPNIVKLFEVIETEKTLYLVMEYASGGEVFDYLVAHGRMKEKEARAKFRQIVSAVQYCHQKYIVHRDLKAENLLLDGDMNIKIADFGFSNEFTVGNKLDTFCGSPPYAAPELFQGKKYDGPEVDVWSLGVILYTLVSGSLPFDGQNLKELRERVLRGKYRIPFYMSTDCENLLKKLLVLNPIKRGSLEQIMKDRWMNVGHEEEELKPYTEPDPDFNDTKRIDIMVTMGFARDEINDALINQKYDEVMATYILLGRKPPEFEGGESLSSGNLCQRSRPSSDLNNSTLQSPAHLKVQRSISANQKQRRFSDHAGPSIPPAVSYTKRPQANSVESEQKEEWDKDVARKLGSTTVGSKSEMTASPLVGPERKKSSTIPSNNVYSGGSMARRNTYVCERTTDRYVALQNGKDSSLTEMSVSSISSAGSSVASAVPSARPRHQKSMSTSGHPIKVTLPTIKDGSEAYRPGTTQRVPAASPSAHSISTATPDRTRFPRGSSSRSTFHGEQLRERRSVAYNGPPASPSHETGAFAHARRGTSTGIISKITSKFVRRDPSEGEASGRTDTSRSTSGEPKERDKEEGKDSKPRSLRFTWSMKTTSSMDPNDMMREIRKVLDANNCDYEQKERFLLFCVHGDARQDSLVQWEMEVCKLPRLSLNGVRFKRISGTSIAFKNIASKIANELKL
# [13] = target: Dual specificity tyrosine-phosphorylation-regulated kinase 1B (Homo sapiens) (UniProt Q9Y463); test: Inhibition of recombinant human full-length GST-tagged DYRK1B expressed in insect cells at 2 uM using Ser/Thr 18 as substrate measured after 1 hr by Z'-LYTE assay relative to control; conditions: Insect cell
# [14] = target: Protein kinase C epsilon type (Homo sapiens) (UniProt Q02156); test: Inhibition of recombinant human full length GST-tagged PRKCE expressed in insect cells at 2 uM using Ser/Thr 07 as substrate measured after 1 hr by Z'-LYTE assay relative to control; conditions: Insect cell
# [15] = target: Interleukin-1 receptor-associated kinase 4 (Homo sapiens) (UniProt Q9NWZ3); test: Inhibition of recombinant human full-length His-tagged IRAK4 expressed in insect cells at 2 uM using Ser/Thr 07 as substrate measured after 1 hr by Z'-LYTE assay relative to control; conditions: Insect cell
# [16] = system: PC3MM2; test: Antitumor activity against human PC3MM2 cells xenografted in female nude mouse model assessed as suppression in P-AKT at S473 level at 50 mg/kg, iv administered once a week and measured at least 8 hrs by immunoblot analysis; assay type: functional, organism-based
# [17] = target: Tyrosine-protein kinase JAK3 (Homo sapiens) (UniProt P52333); test: Inhibition of recombinant human GST-tagged JAK3 (781-1124 residues) expressed in insect cells at 2 uM using Tyr 06 as substrate measured after 1 hr by Z'-LYTE assay relative to control; conditions: Insect cell
# [18] = target: Mitogen-activated protein kinase kinase kinase kinase 2 (Homo sapiens) (UniProt Q12851); test: Inhibition of recombinant human full-length His-tagged MAP4K2 expressed in insect cells at 2 uM using Ser/Thr 07 as substrate measured after 1 hr by Z'-LYTE assay relative to control; conditions: Insect cell
# [19] = target: T1, mTORC2 (Homo sapiens); conditions: U-87 MG, dose 0.025-2 µmol/L, time 6.0 hrs
# [20] = target: Casein kinase I isoform epsilon (Homo sapiens) (UniProt P49674); test: Inhibition of recombinant human full-length His-tagged CSNK1E expressed in insect cells at 2 uM using Ser/Thr 11 as substrate measured after 1 hr by Z'-LYTE assay relative to control; conditions: Insect cell
# [21] = system: MDA-MB-361; test: Induction of apoptosis in human MDA-MB-361 cells assessed as induction in cell death at 3 micromol/L incubated for 48 hrs by FACS analysis relative to control; assay type: functional; conditions: dose 3 µmol/L, at 3 µM
# [22] = target: Serine/threonine-protein kinase PAK 6 (Homo sapiens) (UniProt Q9NQU5); test: Inhibition of recombinant human full length His-tagged PAK6 expressed in insect cells at 2 uM using Ser/Thr 20 as substrate measured after 1 hr by Z'-LYTE assay relative to control; conditions: Insect cell
# Serine/threonine-protein kinase PAK 6 (Homo sapiens), sequence (Q9NQU5 whole entry, looked up): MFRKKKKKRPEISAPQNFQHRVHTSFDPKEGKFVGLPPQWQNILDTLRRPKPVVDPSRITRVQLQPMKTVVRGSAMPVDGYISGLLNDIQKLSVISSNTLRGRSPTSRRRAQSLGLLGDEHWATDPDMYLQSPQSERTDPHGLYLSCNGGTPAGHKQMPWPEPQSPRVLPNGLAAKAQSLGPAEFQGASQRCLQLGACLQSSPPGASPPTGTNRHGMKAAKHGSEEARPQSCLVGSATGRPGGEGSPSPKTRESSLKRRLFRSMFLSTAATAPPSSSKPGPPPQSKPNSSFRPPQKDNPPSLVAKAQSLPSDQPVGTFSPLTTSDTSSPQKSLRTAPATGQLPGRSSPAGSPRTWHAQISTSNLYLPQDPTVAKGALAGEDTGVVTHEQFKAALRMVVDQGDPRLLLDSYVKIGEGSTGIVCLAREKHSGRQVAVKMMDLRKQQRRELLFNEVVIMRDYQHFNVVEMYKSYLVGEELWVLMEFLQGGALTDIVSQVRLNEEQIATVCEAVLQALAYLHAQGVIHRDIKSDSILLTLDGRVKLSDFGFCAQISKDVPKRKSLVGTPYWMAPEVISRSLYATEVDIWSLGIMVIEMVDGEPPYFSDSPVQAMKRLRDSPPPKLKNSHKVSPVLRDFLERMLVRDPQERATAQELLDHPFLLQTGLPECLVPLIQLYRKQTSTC
# [23] = target: Serine/threonine-protein kinase ATR (Homo sapiens, UniProt Q13535); test: Inhibition of ATR (unknown origin) using glutathione S-transferase-p53 as substrate by DELFIA
# Serine/threonine-protein kinase ATR, sequence (Q13535 whole entry, the tested form may be a part): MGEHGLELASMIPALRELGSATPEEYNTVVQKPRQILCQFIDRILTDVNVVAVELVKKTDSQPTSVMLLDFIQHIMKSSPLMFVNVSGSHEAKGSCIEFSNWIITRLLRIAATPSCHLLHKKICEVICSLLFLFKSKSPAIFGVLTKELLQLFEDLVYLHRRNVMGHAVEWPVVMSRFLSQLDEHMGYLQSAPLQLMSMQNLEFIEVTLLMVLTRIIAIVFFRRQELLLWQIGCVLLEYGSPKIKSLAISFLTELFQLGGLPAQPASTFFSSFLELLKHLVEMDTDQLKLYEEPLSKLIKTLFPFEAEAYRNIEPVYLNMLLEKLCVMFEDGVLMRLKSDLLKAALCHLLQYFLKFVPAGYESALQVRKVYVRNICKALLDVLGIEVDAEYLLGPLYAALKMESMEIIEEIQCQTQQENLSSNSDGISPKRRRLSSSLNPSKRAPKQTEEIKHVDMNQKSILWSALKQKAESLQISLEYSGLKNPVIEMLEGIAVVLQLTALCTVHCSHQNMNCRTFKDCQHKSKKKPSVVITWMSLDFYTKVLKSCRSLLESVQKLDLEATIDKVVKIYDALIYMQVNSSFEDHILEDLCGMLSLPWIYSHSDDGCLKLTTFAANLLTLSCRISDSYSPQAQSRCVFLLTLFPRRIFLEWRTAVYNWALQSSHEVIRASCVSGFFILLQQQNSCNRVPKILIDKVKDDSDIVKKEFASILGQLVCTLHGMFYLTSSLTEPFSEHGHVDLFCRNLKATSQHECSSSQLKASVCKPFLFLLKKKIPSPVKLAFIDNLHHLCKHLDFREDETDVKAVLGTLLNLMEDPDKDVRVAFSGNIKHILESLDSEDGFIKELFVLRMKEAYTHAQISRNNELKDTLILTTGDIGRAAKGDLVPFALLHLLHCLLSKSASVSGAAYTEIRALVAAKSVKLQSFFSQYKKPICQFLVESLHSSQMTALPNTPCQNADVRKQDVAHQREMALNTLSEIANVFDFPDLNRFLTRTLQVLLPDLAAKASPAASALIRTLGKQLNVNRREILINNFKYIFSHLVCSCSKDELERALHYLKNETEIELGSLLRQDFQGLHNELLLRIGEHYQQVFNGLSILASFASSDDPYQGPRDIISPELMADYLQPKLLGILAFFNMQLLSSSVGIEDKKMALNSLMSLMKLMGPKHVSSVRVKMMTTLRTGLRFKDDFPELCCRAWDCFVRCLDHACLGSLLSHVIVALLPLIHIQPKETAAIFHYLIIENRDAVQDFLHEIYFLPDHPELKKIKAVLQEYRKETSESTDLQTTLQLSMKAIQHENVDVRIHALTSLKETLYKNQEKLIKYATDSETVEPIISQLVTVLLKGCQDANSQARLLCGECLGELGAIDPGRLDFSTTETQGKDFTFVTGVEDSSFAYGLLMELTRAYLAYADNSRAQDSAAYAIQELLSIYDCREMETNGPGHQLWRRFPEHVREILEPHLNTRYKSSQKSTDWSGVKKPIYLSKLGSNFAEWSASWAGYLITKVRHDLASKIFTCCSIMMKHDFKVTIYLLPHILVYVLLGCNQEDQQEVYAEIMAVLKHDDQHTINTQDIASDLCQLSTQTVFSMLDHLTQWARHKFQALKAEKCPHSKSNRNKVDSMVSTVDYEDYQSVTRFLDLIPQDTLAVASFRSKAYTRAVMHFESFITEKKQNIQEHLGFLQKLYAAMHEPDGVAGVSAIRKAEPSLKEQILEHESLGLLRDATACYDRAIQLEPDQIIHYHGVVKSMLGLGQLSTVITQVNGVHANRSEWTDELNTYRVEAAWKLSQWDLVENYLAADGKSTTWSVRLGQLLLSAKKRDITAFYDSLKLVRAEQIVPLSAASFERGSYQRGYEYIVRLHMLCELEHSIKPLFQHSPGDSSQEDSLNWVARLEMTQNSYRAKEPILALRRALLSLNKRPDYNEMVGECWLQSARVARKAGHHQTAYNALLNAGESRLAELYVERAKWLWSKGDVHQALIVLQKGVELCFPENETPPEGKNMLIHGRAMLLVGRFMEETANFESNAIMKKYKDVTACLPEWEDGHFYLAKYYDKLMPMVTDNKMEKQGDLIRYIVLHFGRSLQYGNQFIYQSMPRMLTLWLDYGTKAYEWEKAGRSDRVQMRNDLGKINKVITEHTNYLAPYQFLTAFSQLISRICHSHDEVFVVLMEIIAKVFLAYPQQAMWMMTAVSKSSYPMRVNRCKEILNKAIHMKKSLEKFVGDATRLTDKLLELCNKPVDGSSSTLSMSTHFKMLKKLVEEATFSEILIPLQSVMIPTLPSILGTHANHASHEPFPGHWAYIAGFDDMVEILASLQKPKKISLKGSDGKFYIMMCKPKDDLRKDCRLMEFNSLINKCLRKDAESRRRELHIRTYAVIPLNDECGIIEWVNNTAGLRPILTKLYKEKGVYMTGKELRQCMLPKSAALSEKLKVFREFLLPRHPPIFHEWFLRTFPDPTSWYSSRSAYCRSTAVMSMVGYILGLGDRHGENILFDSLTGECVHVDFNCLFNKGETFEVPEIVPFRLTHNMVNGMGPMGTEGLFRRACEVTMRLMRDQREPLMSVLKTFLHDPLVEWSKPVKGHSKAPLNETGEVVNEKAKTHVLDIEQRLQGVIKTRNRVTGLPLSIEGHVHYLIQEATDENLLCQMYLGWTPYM
# [24] = target: High affinity nerve growth factor receptor (Homo sapiens) (UniProt P04629); test: Inhibition of recombinant human His-tagged NTRK1 (441-796 residues) expressed in insect cells at 2 uM using Tyr 01 as substrate measured after 1 hr by Z'-LYTE assay relative to control; conditions: Insect cell
# [25] = target: G protein-coupled receptor kinase 5 (Homo sapiens) (UniProt P34947); test: Inhibition of recombinant human full-length GST-tagged GRK5 expressed in insect cells at 2 uM using Ser/Thr 16 as substrate measured after 1 hr by Z'-LYTE assay relative to control; conditions: Insect cell
# [26] = target: Aurora kinase B (Homo sapiens) (UniProt Q96GD4); test: Inhibition of recombinant human full-length His-tagged AURKB expressed in insect cells at 2 uM using Ser/Thr 01 as substrate measured after 1 hr by Z'-LYTE assay relative to control; conditions: Insect cell
compound,measurement,setting,value
CNC(=O)Nc1ccc(-c2nc(N3CC4CCC(C3)O4)c3cnn(C4CCC5(CC4)OCCO5)c3n2)cc1,inhibition,[1],3%
same,inhibition,[2],7%
same,IC50,[3],0.102 µM
same,inhibition,[4],3%
same,inhibition,[5],12%
same,inhibition,[6],Active
same,inhibition,[7],8%
same,Activity,[8],Active
same,inhibition,[9],5%
same,inhibition,[10],-1%
same,inhibition,[11],Active
same,inhibition,[12],13%
same,inhibition,[13],2%
same,inhibition,[14],15%
same,inhibition,[15],3%
same,Activity,[16],Active
same,inhibition,[17],0%
same,inhibition,[18],3%
same,inhibition,[19],inactive
same,inhibition,[20],4%
same,Activity,[21],59%
same,inhibition,[22],9%
same,IC50,[23],> 10 µM
same,inhibition,[24],7%
same,inhibition,[25],-4%
same,inhibition,[26],3%

# Reference: ChEMBL document CHEMBL5696439 (Cancer Res, 2010)
